From ChEMBL document CHEMBL5365408, “Small molecule inhibitors of PCSK9. SAR investigations of head and amine groups” (Bioorg Med Chem Lett, 2023) come the findings set out here.

Data set [1] has as its target T1, Proprotein convertase subtilisin/kexin type 9 (Homo sapiens, UniProt Q8NBP7). Briefly: Inhibition of full length human PCSK9 expressed in human Huh-7 cells at 20 uM by ELISA analysis relative to control. The format is cell-based. A general note: In an ELISA, binding on a coated surface is turned into a signal by an enzyme label.
Data set [2] in a line: (§1) Cytotoxicity against rat Bone marrow cell assessed as inhibition of cell growth with (R)-4-(3H-[1,2,3]triazolo[4,5-b]pyridin-3-yl)-N-(3-chloropyridin-2-yl)-N-(piperidin-3-yl) benzamide as high potent effect standard by celltiter-glo assay. The format is toxicity, cell-based. The note with it: rat, rat bone marrow cells.
The nature of data set [3]: Cytotoxicity against rat Bone marrow cell assessed as inhibition of cell growth with puromycin as high potent effect standard by celltiter-glo assay. The note with it: rat bone marrow cells. The format is toxicity, cell-based.
The nature of data set [4]: Selectivity index, ratio of IC50 for cytotoxicity against rat Bone marrow cell assessed as inhibition of cell growth by celltiter-glo assay to IC50 for inhibition of full length human PCSK9 expressed in human Huh-7 cells by ELISA analysis. (ATP-based viability assays read luminescence as a measure of living cells.)
The target of data set [5] is T1, Proprotein convertase subtilisin/kexin type 9. As to the kind of experiment: Inhibition of full length human PCSK9 expressed in human Huh-7 cells by ELISA analysis. The format is cell-based.
For data set [6], the system named is Bone marrow cell. The data set is described as §1. The format is toxicity, cell-based. The note with it: bone marrow cell.
Data set [7] is described as follows: Cmax in rat at 25 mg/kg, po. The format is ADME, organism-based. Also on record: dose 25 mg/kg, route po. The note with it: in vivo.
The target in data set [8] is T2, CYP1A2 (Homo sapiens, UniProt P05177).
T2 sequence (P05177 whole entry): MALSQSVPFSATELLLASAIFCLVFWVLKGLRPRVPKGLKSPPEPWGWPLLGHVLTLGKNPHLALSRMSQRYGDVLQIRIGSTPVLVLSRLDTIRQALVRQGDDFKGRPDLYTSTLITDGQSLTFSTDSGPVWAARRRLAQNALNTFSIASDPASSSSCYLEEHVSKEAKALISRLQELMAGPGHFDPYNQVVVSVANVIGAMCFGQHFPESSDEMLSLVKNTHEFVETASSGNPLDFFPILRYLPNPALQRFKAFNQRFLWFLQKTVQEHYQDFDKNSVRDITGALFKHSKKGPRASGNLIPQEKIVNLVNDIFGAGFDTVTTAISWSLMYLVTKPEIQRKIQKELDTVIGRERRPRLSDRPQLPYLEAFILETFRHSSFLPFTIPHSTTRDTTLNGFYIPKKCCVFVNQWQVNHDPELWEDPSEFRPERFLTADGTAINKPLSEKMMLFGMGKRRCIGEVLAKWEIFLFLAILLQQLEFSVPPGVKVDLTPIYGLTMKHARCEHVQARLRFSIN
As to the kind of experiment: Inhibition of CYP1A2 (unknown origin) at 3 uM relative to control. The format is ADME.

Data set [9] in a line: Cytotoxicity against human CD34-positive cell assessed as reduction in cell growth by celltiter-glo assay. The format is toxicity, cell-based. The note with it: human CD34-positive cells.
The target of data set [10] is Voltage-gated inwardly rectifying potassium channel KCNH2 (Homo sapiens, UniProt Q12809). Briefly: Inhibition of hERG by patch clamp assay. The format is toxicity. Background: hERG is a cardiac potassium channel; its block is linked to QT prolongation.
Data set [11] is described as follows: Unbound fraction in human plasma by equilibrium dialysis analysis. The format is ADME, cell-free.
The target in data set [12] is CYP2D6 (Homo sapiens, UniProt P10635). Briefly: Inhibition of CYP2D6 (unknown origin) at 3 uM relative to control. The format is ADME.
The nature of data set [13]: Apparent permeability of compound in MDCK-II cells. The format is ADME, cell-based, Canis lupus familiaris. The note with it: dog, read-out: permeability.
The nature of data set [14]: Apparent permeability across basolateral to apical side in MDCK-MDR1 cells. The format is ADME, cell-based, Canis lupus familiaris. The note with it: dog, read-out: permeability.
A short description of data set [15]: Unbound fraction in mouse plasma by equilibrium dialysis analysis. The format is ADME, cell-free.
Data set [16] addresses CYP3A4 (Homo sapiens, UniProt P08684). As to the kind of experiment: Inhibition of CYP3A4 (unknown origin) at 3 uM relative to control. The format is ADME.
A short description of data set [17]: Lipophilicity, log D of the compound by shake flask method. The format is physicochemical. The note with it: octanol/water.
In data set [18] the target is CYP2C9 (Homo sapiens, UniProt P11712). As to the kind of experiment: Inhibition of CYP2C9 (unknown origin) at 3 uM relative to control. The format is ADME.
A short description of data set [19]: Apparent permeability across apical to basolateral side in MDCK-MDR1 cells. The note with it: dog, read-out: permeability. The format is ADME, cell-based, Canis lupus familiaris.

T1 sequence (Q8NBP7 31-152 limits assumed): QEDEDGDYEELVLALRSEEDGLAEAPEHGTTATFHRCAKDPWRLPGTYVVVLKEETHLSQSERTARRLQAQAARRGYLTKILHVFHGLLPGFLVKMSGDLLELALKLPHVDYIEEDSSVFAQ
T1 sequence (Q8NBP7 153-692 limits assumed): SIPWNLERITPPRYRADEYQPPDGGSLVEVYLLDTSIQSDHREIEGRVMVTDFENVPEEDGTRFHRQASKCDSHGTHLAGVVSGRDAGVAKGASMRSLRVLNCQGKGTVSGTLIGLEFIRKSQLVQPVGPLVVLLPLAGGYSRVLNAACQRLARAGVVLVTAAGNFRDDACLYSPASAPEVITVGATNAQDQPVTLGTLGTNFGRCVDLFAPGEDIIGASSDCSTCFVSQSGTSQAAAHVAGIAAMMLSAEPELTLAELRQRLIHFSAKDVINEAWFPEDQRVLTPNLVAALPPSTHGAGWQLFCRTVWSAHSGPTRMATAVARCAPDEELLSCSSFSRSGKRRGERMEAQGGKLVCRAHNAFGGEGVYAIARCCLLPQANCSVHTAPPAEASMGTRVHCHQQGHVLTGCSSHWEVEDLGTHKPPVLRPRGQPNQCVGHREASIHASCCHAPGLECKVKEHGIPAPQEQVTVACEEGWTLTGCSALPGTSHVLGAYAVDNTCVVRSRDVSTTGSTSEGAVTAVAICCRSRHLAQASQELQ
Chain of CYP3A4 (P08684 whole entry): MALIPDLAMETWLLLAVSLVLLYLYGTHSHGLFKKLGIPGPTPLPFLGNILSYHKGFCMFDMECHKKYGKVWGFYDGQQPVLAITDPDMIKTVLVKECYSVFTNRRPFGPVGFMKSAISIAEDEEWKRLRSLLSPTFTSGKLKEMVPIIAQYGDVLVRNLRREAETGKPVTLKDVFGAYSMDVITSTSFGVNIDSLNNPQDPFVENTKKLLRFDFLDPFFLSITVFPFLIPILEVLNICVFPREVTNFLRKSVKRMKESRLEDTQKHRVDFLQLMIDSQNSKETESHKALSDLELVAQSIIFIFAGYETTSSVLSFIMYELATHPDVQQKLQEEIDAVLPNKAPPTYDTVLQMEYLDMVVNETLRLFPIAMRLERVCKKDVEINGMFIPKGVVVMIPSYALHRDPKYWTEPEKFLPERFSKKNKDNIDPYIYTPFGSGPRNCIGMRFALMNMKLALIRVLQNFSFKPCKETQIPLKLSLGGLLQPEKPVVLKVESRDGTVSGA
Chain of CYP2D6 (P10635 whole entry): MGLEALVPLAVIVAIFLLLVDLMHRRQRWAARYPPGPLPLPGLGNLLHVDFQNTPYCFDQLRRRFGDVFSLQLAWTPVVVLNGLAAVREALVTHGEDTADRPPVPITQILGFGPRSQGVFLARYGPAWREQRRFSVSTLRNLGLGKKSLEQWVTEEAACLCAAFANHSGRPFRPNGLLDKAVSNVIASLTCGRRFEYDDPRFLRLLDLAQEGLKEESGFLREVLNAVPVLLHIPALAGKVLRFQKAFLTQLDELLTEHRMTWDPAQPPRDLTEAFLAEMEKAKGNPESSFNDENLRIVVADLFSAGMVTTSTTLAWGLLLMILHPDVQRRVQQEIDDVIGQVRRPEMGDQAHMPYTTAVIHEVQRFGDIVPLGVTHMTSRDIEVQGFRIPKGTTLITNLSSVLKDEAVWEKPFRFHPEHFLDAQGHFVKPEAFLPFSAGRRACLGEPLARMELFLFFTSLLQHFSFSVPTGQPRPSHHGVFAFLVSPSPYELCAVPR
Chain of Voltage-gated inwardly rectifying potassium channel KCNH2 (Q12809 whole entry): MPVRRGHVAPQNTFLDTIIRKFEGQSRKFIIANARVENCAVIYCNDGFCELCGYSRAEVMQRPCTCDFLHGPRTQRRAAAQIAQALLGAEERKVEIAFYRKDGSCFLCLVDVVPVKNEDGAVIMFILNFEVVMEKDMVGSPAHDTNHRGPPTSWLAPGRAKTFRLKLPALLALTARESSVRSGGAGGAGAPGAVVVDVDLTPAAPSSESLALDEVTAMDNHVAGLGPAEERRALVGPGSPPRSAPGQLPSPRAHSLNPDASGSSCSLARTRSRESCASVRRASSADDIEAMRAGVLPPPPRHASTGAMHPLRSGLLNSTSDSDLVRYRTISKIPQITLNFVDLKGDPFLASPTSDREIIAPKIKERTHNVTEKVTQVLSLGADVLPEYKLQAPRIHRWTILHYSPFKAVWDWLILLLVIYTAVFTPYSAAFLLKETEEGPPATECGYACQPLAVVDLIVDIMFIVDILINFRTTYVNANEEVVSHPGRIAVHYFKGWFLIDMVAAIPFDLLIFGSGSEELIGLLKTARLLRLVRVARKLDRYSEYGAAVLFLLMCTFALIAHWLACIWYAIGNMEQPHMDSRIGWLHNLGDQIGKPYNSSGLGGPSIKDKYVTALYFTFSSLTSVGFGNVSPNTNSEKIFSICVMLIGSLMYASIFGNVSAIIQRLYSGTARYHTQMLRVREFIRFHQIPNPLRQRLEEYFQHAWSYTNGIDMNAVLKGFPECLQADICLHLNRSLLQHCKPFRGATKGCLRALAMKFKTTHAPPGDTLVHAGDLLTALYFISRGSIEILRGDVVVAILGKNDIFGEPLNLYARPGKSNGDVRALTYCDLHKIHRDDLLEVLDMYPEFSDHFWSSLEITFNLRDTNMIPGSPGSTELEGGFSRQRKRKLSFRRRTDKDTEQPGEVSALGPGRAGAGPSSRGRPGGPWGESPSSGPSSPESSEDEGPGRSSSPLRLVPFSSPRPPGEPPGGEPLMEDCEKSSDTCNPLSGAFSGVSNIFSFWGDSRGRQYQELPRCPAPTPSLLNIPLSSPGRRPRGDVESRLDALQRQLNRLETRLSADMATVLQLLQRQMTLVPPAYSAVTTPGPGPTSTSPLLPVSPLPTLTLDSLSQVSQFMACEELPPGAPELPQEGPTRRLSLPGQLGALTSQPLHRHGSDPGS
Chain of CYP2C9 (P11712 whole entry): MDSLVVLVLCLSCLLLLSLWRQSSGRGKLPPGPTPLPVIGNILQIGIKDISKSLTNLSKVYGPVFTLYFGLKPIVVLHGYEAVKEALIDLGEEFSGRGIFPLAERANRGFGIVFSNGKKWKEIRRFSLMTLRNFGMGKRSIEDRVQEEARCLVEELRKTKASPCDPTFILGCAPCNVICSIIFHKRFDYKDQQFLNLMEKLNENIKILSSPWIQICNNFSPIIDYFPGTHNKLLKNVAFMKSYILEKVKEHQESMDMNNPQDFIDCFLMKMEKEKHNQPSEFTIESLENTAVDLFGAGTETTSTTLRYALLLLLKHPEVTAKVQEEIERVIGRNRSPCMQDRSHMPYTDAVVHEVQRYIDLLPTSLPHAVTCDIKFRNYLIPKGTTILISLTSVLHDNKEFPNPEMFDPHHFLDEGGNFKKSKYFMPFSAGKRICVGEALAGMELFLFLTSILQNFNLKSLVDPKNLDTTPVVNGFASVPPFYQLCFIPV

The term inhibition denotes how much of the control response was suppressed. A high value points to a response far below the control. In general, IC50 refers to the point on the concentration scale where inhibition reaches its midpoint. `O=C(c1ccc(-n2nnc3cccnc32)cc1)N(c1ncccc1Cl)[C@H]1CNC[C@@H](CO)C1` (racemic) gave an inhibition in [1] of 11%. The IC50 in data set [2] was above 100 µM.

In [1], `C[C@H]1CNC[C@H](N(C(=O)c2ccc(-n3nnc4cccnc43)cc2)c2ncccc2Cl)C1` (racemic) [listing 1 of 2 here] displayed an inhibition of 43%.

On to `Cc1nccnc1N(C(=O)c1ccc(-n2nnc3cccnc32)cc1)[C@@H]1CCCNC1`, for which the IC50 in data set [3] was found to be 2.36 µM; in [5], 1.84 µM; in data set [2], 10.9 µM. For the same compound, the “Ratio IC50” value in data set [4] is 1.28.

With `COc1cccnc1N(C(=O)c1ccc(-c2cnn3cccnc23)cc1)[C@@H]1CCCNC1`, half-maximal inhibition in [5] (IC50) was put at 16.9 µM.

In data set [5], `CNC(=O)OC[C@H]1CNC[C@H](N(C(=O)c2ccc(-n3nnc4cccnc43)cc2)c2ncccc2Cl)C1` (racemic) returned an IC50 above 20 µM.

In the case of `C[C@H]1CNC[C@H](N(C(=O)c2ccc(-n3nnc4cccnc43)cc2)c2ncccc2Cl)C1`, the results for the IC50 in [5] and in data set [6] were 14.1 µM and 22 µM, respectively.

For the compound `O=C(c1ccc(-n2nnc3cccnc32)cc1)N(c1nccn1C1CC1)[C@@H]1CCCNC1`, the IC50 stood at 1.24 µM in [3] and 6.84 µM in [5]. Further, the “Ratio IC50” value in [4] stood at 0.18.

For orientation: Cmax means the peak of the concentration-time curve. With `O=C(c1ccc(-n2nnc3cccnc32)cc1)N(c1ncccc1Cl)[C@@H]1CCCNC1`, the peak level in data set [7] (Cmax) was 312 ng/mL. Besides, the values for the IC50 in data set [3] and in [2] were 1.15 µM and 3.23 µM, respectively.

On to `O=C(c1ccc(-n2nnc3cccnc32)cc1)N(c1ncccc1Cl)[C@H]1CNC[C@H](c2ccccc2)C1` (racemic), for which the IC50 was above 20 µM in data set [5] and 12.5 µM in data set [2].

Take `O=C(c1ccc(-n2nnc3cccnc32)cc1)N(c1ncccc1Cl)[C@H]1CNC[C@H](CO)C1`: the IC50 in data set [5] amounted to 4.6 µM; in data set [6], 7.2 µM.

As to `Cn1ccc2ccnc(N(C(=O)c3ccc(-n4nnc5cccnc54)cc3)[C@@H]3CCCNC3)c21`, the IC50 in [3] is 0.04 µM; in data set [5], 0.58 µM. Further, in [4], the “Ratio IC50” value turned out to be 0.07.

Consider `C[C@@H]1CNC[C@H](N(C(=O)c2ccc(-n3nnc4cccnc43)cc2)c2ncccc2Cl)C1`, for which the results for the IC50 in [5] and in data set [6] were 17.1 µM and 23.3 µM, respectively.

For orientation: logD means lipophilicity at a set pH, counting ionised and neutral species. `O=C(c1ccc(-c2cnn3cccnc23)cc1)N(c1ncccc1C(F)(F)F)[C@@H]1CCCNC1`: the inhibition at 3 µM in data set [8], in data set [12], in data set [16] and in [18] was below 40% in each case. Further, the IC50 is 35.9 µM in data set [9]; 57.6 µM in data set [10]; above 20 µM in data set [3]; 2.79 µM in data set [5]; 21.2 µM in [2]. The Fu was 0.41% in data set [11] and 0.13% in data set [15]. In addition, in data set [4], the “Ratio IC50” value is recorded as 7.6. Moreover, the Papp in [13] came to 7 ×10⁻⁶ cm/s. For the same compound, the Papp B→A in [14] was 26.4 ×10⁻⁶ cm/s. Moreover, the logD in [17] amounted to 1.1. The Papp A→B in [19] amounted to 0.7 ×10⁻⁶ cm/s.

Turning to `O=C(c1ccc(-c2cnn3cccnc23)cc1)N(c1ncccc1F)[C@@H]1CCCNC1`, in [5], the IC50 was above 20 µM.

As for `Cc1cccnc1N(C(=O)c1ccc(-n2nnc3cccnc32)cc1)[C@@H]1CCCNC1`, the results for the IC50 in [3] and in data set [5] were 0.99 µM and 1.97 µM, respectively. The “Ratio IC50” value in data set [4] is 0.5.

As to `Cc1cnc2c(c1)nnn2-c1ccc(C(=O)N(c2ncccc2Cl)[C@@H]2CCCNC2)nc1`, the IC50 in data set [3] was found to be 19.9 µM; in [2] it was 27.1 µM.

Take `O=C(c1ccc(-n2nnc3cccnc32)cc1)N(c1nccc2ccsc12)[C@@H]1CCCNC1`: the IC50 in data set [3] was 0.28 µM; in data set [5] it was 0.73 µM. Besides, the “Ratio IC50” value in data set [4] was 0.38.

In turn, `NC(=O)NC[C@H]1CNC[C@H](N(C(=O)c2ccc(-n3nnc4cccnc43)cc2)c2ncccc2Cl)C1` (racemic) registered an IC50 in data set [5] above 20 µM.

In the case of `O=C(c1ccc(-n2nnc3cccnc32)cc1)N(c1ncccc1C(F)(F)F)[C@@H]1CCCNC1`, the “Ratio IC50” value in [4] stood at 8.28. Also, the IC50 in data set [5] was 1.66 µM; in data set [2] it was 13.8 µM.

Compound `O=C(c1ccc(-c2cnn3cccnc23)cc1)N(c1ncccc1C1CC1)[C@@H]1CCCNC1` yielded an IC50 in data set [5] of 7.74 µM.

Take `Cc1ccnc(N(C(=O)c2ccc(-n3nnc4cccnc43)cc2)[C@@H]2CCCNC2)c1Cl`: the IC50 in data set [3] is 0.38 µM; in [5], 1.09 µM. Also, the “Ratio IC50” value in data set [4] turned out to be 0.35.

In data set [1], `C[C@@H]1CNC[C@H](N(C(=O)c2ccc(-n3nnc4cccnc43)cc2)c2ncccc2Cl)C1` (racemic) [listing 1 of 2 here] returned an inhibition of 38%.

Take `CCc1cccnc1N(C(=O)c1ccc(-c2cnn3cccnc23)cc1)[C@@H]1CCCNC1`: the IC50 in [5] was 3.31 µM.

For the compound `C[C@@H]1CNC[C@H](N(C(=O)c2ccc(-n3nnc4cccnc43)cc2)c2ncccc2Cl)C1` (racemic) [listing 2 of 2 here], the IC50 in [2] turned out to be 35.6 µM.

Regarding `COC(=O)NC[C@H]1CNC[C@H](N(C(=O)c2ccc(-n3nnc4cccnc43)cc2)c2ncccc2Cl)C1` (racemic), the IC50 in data set [5] is above 20 µM.

In the case of `O=C(c1ccc(-n2nnc3cccnc32)cc1)N(c1ncccc1Cl)[C@H]1CNC[C@H](CO)C1` (racemic), the IC50 in data set [5] is 8.9 µM; in [2] it was 9.9 µM.

Turning to `O=C(c1ccc(-n2nnc3cccnc32)cc1)N(c1ncccc1OC(F)(F)F)[C@@H]1CCCNC1`, the IC50 in data set [5] was 5.4 µM; in [2], 6.44 µM.

`CC(=O)NC[C@H]1CNC[C@H](N(C(=O)c2ccc(-n3nnc4cccnc43)cc2)c2ncccc2Cl)C1` (racemic) came in with an IC50 in data set [5] above 20 µM.

In the case of `O=C(c1ccc(-n2nnc3cccnc32)cc1)N(c1nccc2c1CCCC2)[C@@H]1CCCNC1`, the IC50 was found to be 0.41 µM in data set [3] and 2.28 µM in data set [5]. In addition, in data set [4], the “Ratio IC50” value is given as 0.18.

As for `C[C@H]1CNC[C@H](N(C(=O)c2ccc(-n3nnc4cccnc43)cc2)c2ncccc2Cl)C1` (racemic) [listing 2 of 2 here], the IC50 in [2] was found to be 37.2 µM.

In the case of `O=C(c1ccc(-n2nnc3cccnc32)cc1)N(c1ncccc1Cl)[C@H]1CNC[C@H](Oc2ccccc2)C1` (racemic), in data set [5], the IC50 was above 20 µM.

On to `Cn1ncc2ccnc(N(C(=O)c3ccc(-n4nnc5cccnc54)cc3)[C@@H]3CCCNC3)c21`, for which the IC50 in data set [3] was 0.18 µM; in [5], 0.62 µM. Further, the “Ratio IC50” value in data set [4] was 0.29.

As to `O=C(c1ccc(-c2cnn3cccnc23)cc1)N(c1ncccc1-c1ccccc1)[C@@H]1CCCNC1`, the values for the concentration for half-maximal inhibition (IC50) in data set [3] and in data set [5] were 4.39 µM and 1.8 µM, respectively. In data set [4], the “Ratio IC50” value turned out to be 2.43.

On to `CO[C@H]1CNC[C@H](N(C(=O)c2ccc(-n3nnc4cccnc43)cc2)c2ncccc2Cl)C1` (racemic), for which the IC50 in data set [5] is above 20 µM; in [2], 76.6 µM.

As to `N#Cc1cccnc1N(C(=O)c1ccc(-c2cnn3cccnc23)cc1)[C@@H]1CCCNC1`, the IC50 in data set [5] was above 20 µM.
